In patent US20230108906A1, “SUBSTITUTED BICYCLIC AND TRICYCLIC UREAS AND AMIDES, ANALOGUES THEREOF, AND METHODS USING SAME” (Arbutus Biopharma Corporation, priority 2019, published 2023):

The compounds below were run on HBV rcDNA in HepDE19 cells (assay: HepDE19 assay with bDNA quantitation of HBV rcDNA). Conditions: Hepatitis B virus, HepDE19, 168 h, inhibition of rcDNA formation in HepDE19 cells (HepG2 derived), Tet-free medium, 7 day incubation, Quantigene 2.0 bDNA readout, top concentration 25 μM; read-out: DE-19bDNA EC50.
Type: cell-based, hepatitis B virus (HBV)
In short: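 Cytotoxicity run on replicate plates (5,000 cells/well, 4 days, ATP luminescence, CC50), while antiviral plates (50,000 cells/well) received compound for 7 days after tetracycline withdrawal to induce HBV replication. Top dose 25 μM, 8 points, 0.5% DMSO; rcDNA by branched-DNA assay, % inhibition fitted (4-parameter) for EC50 and EC90.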

Structure (SMILES) | EC50
CN1Cc2[nH]c(=O)c3cc(F)c(F)cc3c2C(N(C)C(=O)Nc2ccc(F)c(C#N)c2)C1 (single isomer, unassigned) [Compound 174, 3-(3-Cyano-4-fluorophenyl)-1-(8,9-difluoro-3-methyl-6-oxo-1,2,3,4,5,6-hexahydrobenzo[c][1,7]naphthyridin-1-yl)-1-methylurea] | 310 nM

Same assay, conditions: inhibition of rcDNA formation in HepDE19 cells (HepG2 derived), Tet-free medium, 7 day incubation, Quantigene 2.0 bDNA readout, top concentration 25 μM; read-out: DE-19bDNA EC50

Structure (SMILES) | EC50
CC(=O)N1Cc2[nH]c(=O)c3cc(F)ccc3c2C(N(C)C(=O)Nc2ccc(F)c(C#N)c2)C1 (single isomer, unassigned) [Compound 166, 1-(3-Acetyl-8-fluoro-6-oxo-1,2,3,4,5,6-hexahydrobenzo[c][1,7]naphthyridin-1-yl)-3-(3-cyano-4-fluorophenyl)-1-methylurea] | 11000 nM
CN1Cc2[nH]c(=O)c3cc(F)c(F)cc3c2C(N(C)C(=O)Nc2ccc(F)c(Cl)c2)C1 (single isomer, unassigned) [Compound 167, 3-(3-Chloro-4-fluorophenyl)-1-(8,9-difluoro-3-methyl-6-oxo-1,2,3,4,5,6-hexahydrobenzo[c][1,7]naphthyridin-1-yl)-1-methylurea] | 7600 nM
CN1Cc2[nH]c(=O)c3cc(F)c(F)cc3c2C(N(C)C(=O)Nc2ccc(F)c(Cl)c2)C1 (single isomer, unassigned) [Compound 168, 3-(3-Chloro-4-fluorophenyl)-1-(8,9-difluoro-3-methyl-6-oxo-1,2,3,4,5,6-hexahydrobenzo[c][1,7]naphthyridin-1-yl)-1-methylurea] | 180 nM
CN(C(=O)Nc1ccc(F)c(Cl)c1)C1CN(CCO)Cc2[nH]c(=O)c3cc(F)ccc3c21 (single isomer, unassigned) [Compound 169, 3-(3-Chloro-4-fluorophenyl)-1-(8-fluoro-3-(2-hydroxyethyl)-6-oxo-1,2,3,4,5,6-hexahydrobenzo[c][1,7]naphthyridin-1-yl)-1-methylurea] | 6600 nM
CN(C(=O)Nc1ccc(F)c(Cl)c1)C1CN(CCO)Cc2[nH]c(=O)c3cc(F)ccc3c21 (single isomer, unassigned) [Compound 170, 3-(3-Chloro-4-fluorophenyl)-1-(8-fluoro-3-(2-hydroxyethyl)-6-oxo-1,2,3,4,5,6-hexahydrobenzo[c][1,7]naphthyridin-1-yl)-1-methylurea] | 3100 nM
CN(C(=O)Nc1ccc(F)c(C#N)c1)C1CN(CCO)Cc2[nH]c(=O)c3cc(F)ccc3c21 (single isomer, unassigned) [Compound 171, 3-(3-Cyano-4-fluorophenyl)-1-(8-fluoro-3-(2-hydroxyethyl)-6-oxo-1,2,3,4,5,6-hexahydrobenzo[c][1,7]naphthyridin-1-yl)-1-methylurea] | 23000 nM
CN(C(=O)Nc1ccc(F)c(C#N)c1)C1CN(CCO)Cc2[nH]c(=O)c3cc(F)ccc3c21 (single isomer, unassigned) [Compound 172, 3-(3-Cyano-4-fluorophenyl)-1-(8-fluoro-3-(2-hydroxyethyl)-6-oxo-1,2,3,4,5,6-hexahydrobenzo[c][1,7]naphthyridin-1-yl)-1-methylurea] | 10000 nM
CN(C(=O)Nc1ccc(F)c(C#N)c1)C1CNCc2[nH]c(=O)c3cc(F)c(F)cc3c21 (single isomer, unassigned) [Compound 175, 3-(3-Cyano-4-fluorophenyl)-1-(8,9-difluoro-6-oxo-1,2,3,4,5,6-hexahydrobenzo[c][1,7]naphthyridin-1-yl)-1-methylurea] | 1500 nM
CN(C(=O)Nc1ccc(F)c(C#N)c1)C1CNCc2[nH]c(=O)c3cc(F)c(F)cc3c21 (single isomer, unassigned) [Compound 176, 3-(3-Cyano-4-fluorophenyl)-1-(8,9-difluoro-6-oxo-1,2,3,4,5,6-hexahydrobenzo[c][1,7]naphthyridin-1-yl)-1-methylurea] | 50 nM
CC(=O)N1Cc2[nH]c(=O)c3cc(F)c(F)cc3c2C(N(C)C(=O)Nc2ccc(F)c(C#N)c2)C1 (single isomer, unassigned) [Compound 177, 1-(3-Acetyl-8,9-difluoro-6-oxo-1,2,3,4,5,6-hexahydrobenzo[c][1,7]naphthyridin-1-yl)-3-(3-cyano-4-fluorophenyl)-1-methylurea] | ≥ 25000 nM
CC(=O)N1Cc2[nH]c(=O)c3cc(F)c(F)cc3c2C(N(C)C(=O)Nc2ccc(F)c(C#N)c2)C1 (single isomer, unassigned) [Compound 178, 1-(3-Acetyl-8,9-difluoro-6-oxo-1,2,3,4,5,6-hexahydrobenzo[c][1,7]naphthyridin-1-yl)-3-(3-cyano-4-fluorophenyl)-1-methylurea] | 11000 nM
CN(C(=O)Nc1ccc(F)c(Cl)c1)C1CN(CCO)Cc2[nH]c(=O)c3cc(F)c(F)cc3c21 (single isomer, unassigned) [Compound 179, 3-(3-Chloro-4-fluorophenyl)-1-(8,9-difluoro-3-(2-hydroxyethyl)-6-oxo-1,2,3,4,5,6-hexahydrobenzo[c][1,7]naphthyridin-1-yl)-1-methylurea] | 7300 nM
CN(C(=O)Nc1ccc(F)c(Cl)c1)C1CN(CCO)Cc2[nH]c(=O)c3cc(F)c(F)cc3c21 (single isomer, unassigned) [Compound 180, 3-(3-Chloro-4-fluorophenyl)-1-(8,9-difluoro-3-(2-hydroxyethyl)-6-oxo-1,2,3,4,5,6-hexahydrobenzo[c][1,7]naphthyridin-1-yl)-1-methylurea] | 1400 nM
CN(C(=O)Nc1ccc(F)c(C#N)c1)C1CN(CCO)Cc2[nH]c(=O)c3cc(F)c(F)cc3c21 (single isomer, unassigned) [Compound 181, 3-(3-Cyano-4-fluorophenyl)-1-(8,9-difluoro-3-(2-hydroxyethyl)-6-oxo-1,2,3,4,5,6-hexahydrobenzo[c][1,7]naphthyridin-1-yl)-1-methylurea] | ≥ 25000 nM
CN(C(=O)Nc1ccc(F)c(C#N)c1)C1CN(CCO)Cc2[nH]c(=O)c3cc(F)c(F)cc3c21 (single isomer, unassigned) [Compound 182, 3-(3-Cyano-4-fluorophenyl)-1-(8,9-difluoro-3-(2-hydroxyethyl)-6-oxo-1,2,3,4,5,6-hexahydrobenzo[c][1,7]naphthyridin-1-yl)-1-methylurea] | 4900 nM
CN(C(=O)Nc1ccc(F)c(Cl)c1)C1CSCc2[nH]c(=O)c3cc(F)ccc3c21 (single isomer, unassigned) [Compound 183, 3-(3-Chloro-4-fluorophenyl)-1-(8-fluoro-6-oxo-1,4,5,6-tetrahydro-2H-thiopyrano[3,4-c]isoquinolin-1-yl)-1-methylurea] | 1100 nM
CN(C(=O)Nc1ccc(F)c(Cl)c1)C1CSCc2[nH]c(=O)c3cc(F)ccc3c21 (single isomer, unassigned) [Compound 184, 3-(3-Chloro-4-fluorophenyl)-1-(8-fluoro-6-oxo-1,4,5,6-tetrahydro-2H-thiopyrano[3,4-c]isoquinoIin-1-yl)-1-methylurea] | 30 nM
CN(C(=O)Nc1ccc(F)c(C#N)c1)C1CSCc2[nH]c(=O)c3cc(F)ccc3c21 (single isomer, unassigned) [Compound 185, 3-(3-Cyano-4-fluorophenyl)-1-(8-fluoro-6-oxo-1,4,5,6-tetrahydro-2H-thiopyrano[3,4-c]isoquinolin-1-yl)-1-methylurea] | 3300 nM
CN(C(=O)Nc1ccc(F)c(C#N)c1)C1CSCc2[nH]c(=O)c3cc(F)ccc3c21 (single isomer, unassigned) [Compound 186, 3-(3-Cyano-4-fluorophenyl)-1-(8-fluoro-6-oxo-1,4,5,6-tetrahydro-2H-thiopyrano[3,4-c]isoquinolin-1-yl)-1-methylurea] | 60 nM
CN(C(=O)Nc1ccc(F)c(Cl)c1)C1CSCc2[nH]c(=O)c3cc(F)c(F)cc3c21 (single isomer, unassigned) [Compound 187, 3-(3-Chloro-4-fluorophenyl)-1-(8,9-difluoro-6-oxo-1,4,5,6-tetrahydro-2H-thiopyrano[3,4-c]isoquinolin-1-yl)-1-methylurea] | 900 nM
CN(C(=O)Nc1ccc(F)c(Cl)c1)C1CSCc2[nH]c(=O)c3cc(F)c(F)cc3c21 (single isomer, unassigned) [Compound 188, 3-(3-Chloro-4-fluorophenyl)-1-(8,9-difluoro-6-oxo-1,4,5,6-tetrahydro-2H-thiopyrano[3,4-c]isoquinolin-1-yl)-1-methylurea] | 20 nM
CN(C(=O)Nc1ccc(F)c(C#N)c1)C1CSCc2[nH]c(=O)c3cc(F)c(F)cc3c21 (single isomer, unassigned) [Compound 189, 3-(3-Cyano-4-fluorophenyl)-1-(8,9-difluoro-6-oxo-1,4,5,6-tetrahydro-2H-thiopyrano[3,4-c]isoquinolin-1-yl)-1-methylurea] | 880 nM
CN(C(=O)Nc1ccc(F)c(C#N)c1)C1CSCc2[nH]c(=O)c3cc(F)c(F)cc3c21 (single isomer, unassigned) [Compound 190, 3-(3-Cyano-4-fluorophenyl)-1-(8,9-difluoro-6-oxo-1,4,5,6-tetrahydro-2H-thiopyrano[3,4-c]isoquinolin-1-yl)-1-methylurea] | 20 nM
CN(C(=O)Nc1ccc(F)c(F)c1)C1CNCc2[nH]c(=O)c3cc(F)c(F)cc3c21 (single isomer, unassigned) [Compound 191, 1-(8,9-Difluoro-6-oxo-1,2,3,4,5,6-hexahydrobenzo[c][1,7]naphthyridin-1-yl)-3-(3,4-difluorophenyl)-1-methylurea] | 3000 nM
CN(C(=O)Nc1ccc(F)c(F)c1)C1CNCc2[nH]c(=O)c3cc(F)c(F)cc3c21 (single isomer, unassigned) [Compound 192, 1-(8,9-Difluoro-6-oxo-1,2,3,4,5,6-hexahydrobenzo[c][1,7]naphthyridin-1-yl)-3-(3,4-difluorophenyl)-1-methylurea] | 40 nM
